Results reported in patent publication US6875760B2 (Novo Nordisk A/S, priority 1999, dated 2005).

target: T1, cloned human glucagon receptor (Homo sapiens, UniProt P47871); experiment: Glucagon Binding Assay (II); settings: not given
T1 construct: expressed in transfected cells; plasma membrane preparation
T1 sequence (P47871 26-477): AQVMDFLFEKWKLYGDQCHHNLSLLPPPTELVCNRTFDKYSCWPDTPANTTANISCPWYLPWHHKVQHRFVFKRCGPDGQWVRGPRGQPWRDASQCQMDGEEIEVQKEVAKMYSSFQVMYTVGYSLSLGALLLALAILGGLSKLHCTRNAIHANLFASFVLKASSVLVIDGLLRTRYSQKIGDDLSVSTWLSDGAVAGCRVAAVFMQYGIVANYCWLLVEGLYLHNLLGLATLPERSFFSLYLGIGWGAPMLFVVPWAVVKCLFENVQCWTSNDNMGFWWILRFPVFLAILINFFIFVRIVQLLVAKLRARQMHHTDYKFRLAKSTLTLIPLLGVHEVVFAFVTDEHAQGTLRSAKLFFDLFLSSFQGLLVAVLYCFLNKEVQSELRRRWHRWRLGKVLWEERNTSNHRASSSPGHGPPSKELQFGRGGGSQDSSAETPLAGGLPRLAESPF

IC50 | Compound
140 nM | CC(C)CC1CCC(N(Cc2ccc(C(=O)NCCC(=O)O)cc2)C(=O)Nc2ccc(OC(F)(F)F)cc2)CC1 (centres unmarked)

same assay, conditions: plasma membranes of BHK cells expressing the receptor; read-out: Glu Bd Assay (II) IC50

Compound | IC50
O=C(Nc1nn[nH]n1)c1ccc(CN(C(=O)Nc2ccc(OC(F)(F)F)cc2)[C@H]2CC[C@H](C3CCCCC3)CC2)cc1 [Example 576, 4-[1-(4-trans-Cyclohexylcyclohexyl)-3-(4-trifluoromethoxyphenyl)ureidomethyl]-N-(2H-tetrazol-5-yl)benzamide] | 4 nM
Cc1cc(C)c(Cc2ccc(C(=O)NN(Cc3ccc(C(=O)NCCC(=O)O)cc3)[C@H]3CC[C@@H](C(C)(C)C)CC3)o2)c(C)c1 [Example 591, 3-(4-{N-(cis-4-tert-Butylcyclohexyl)-N′-[5-(2,4,6-trimethylbenzyl)furan-2-carbonyl]hydrazinomethyl}benzoylamino)propionic acid] | 4 nM
CC1CCC(N(Cc2ccc(C(=O)NCCC(=O)O)cc2)C(=O)Nc2ccc(-c3ccccc3)cc2)CC1 (centres unmarked) | 516 nM
N#Cc1ccc(NC(=O)N(Cc2ccc(C(=O)Nc3nn[nH]n3)cc2)c2ccc(C3CCCCC3)cc2)cc1C(F)(F)F [Example 597, 4-[1-(4-Cyclohexylphenyl)-3-(4-cyano-3-trifluoromethylphenyl)ureidomethyl]-N-(2H-tetrazol-5-yl)benzamide] | 7 nM
CC(C)(C)C1CCC(N(Cc2ccc(C(=O)Nc3nn[nH]n3)cc2)C(=O)Nc2cc(Cl)cc(Cl)c2)CC1 (centres unmarked) [Example 172, 4-[1-(4-tert-Butylcyclohexyl)-3-(3,5-dichlorophenyl)ureidomethyl]-N-(2H-tetrazol-5-yl)benzamide] | 7 nM
O=C(O)CCNC(=O)c1ccc(CN(CCc2ccc(Cl)cc2)C(=O)Nc2ccc(OCc3ccccc3)cc2)cc1 | 400 nM
O=C(Nc1nn[nH]n1)c1ccc(CN(C(=O)Nc2ccc(OC(F)(F)F)cc2)[C@H]2CC[C@@H](C3CCCCC3)CC2)cc1 [Example 575, 4-[1-(4-cis-Cyclohexylcyclohexyl)-3-(4-trifluoromethoxyphenyl)ureidomethyl]-N-(2H-tetrazol-5-yl)benzamide] | 15 nM
C[C@@H](C1CCCCC1)N(Cc1ccc(C(=O)NCCC(=O)O)cc1)C(=O)Nc1ccc2ccccc2c1 [Example 110, 3-{4-[1-((1S)-1-Cyclohexylethyl)-3-naphthalene-2-ylureidomethyl]benzoylamino)propionic acid] | 694 nM
O=C(Nc1nn[nH]n1)c1ccc(CN(C(=O)NCc2ccc(Cl)c(Cl)c2)c2ccc(C3CCCCC3)cc2)cc1 [Example 595, 4-[1-(4-Cyclohexylphenyl)-3-(3,4-dichlorobenzyl)ureidomethyl}-N-(2H-tetrazol-5-yl)benzamide] | 39 nM
CC(C)(C)[C@H]1CC[C@H](N(Cc2ccc(C(=O)Nc3nn[nH]n3)cc2)C(=O)Nc2cc(Cl)cc(Cl)c2)CC1 [Example 174, 4-[1-(trans-4-tert-Butylcyclohexyl)-3-(3,5-dichlorophenyl)ureidomethyl]-N-(2H-tetrazol-5-yl)benzamide] | 11 nM
O=C(O)CCNC(=O)c1ccc(CN(C(=O)Nc2ccc3[nH]ccc3c2)c2ccc(C3CCCCC3)cc2)cc1 [Example 607, 3-{4-[1-(4-Cyclohexylphenyl)-3-(1H-indol-5-yl)ureidomethyl]benzoylamino}propionic acid] | 1850 nM

Now from value to molecule:

IC50 | Compound
242 nM | CC(C)(C)C1CCC(N(Cc2ccc(CNc3nn[nH]n3)cc2)C(=O)Nc2ccc(OC(F)(F)F)cc2)CC1 (mixture of isomers) [Example 579, 1-(4-tert-Butylcyclohexyl)-1-{4-[(2H-tetrazol-5-ylamino)methyl]benzyl}-3-(4-trifluoromethoxyphenyl)urea]
188 nM | CCCCOC(=O)c1ccc(NC(=O)N(Cc2ccc(C(=O)NCCC(=O)O)cc2)C2CCC(C)CC2)cc1 (centres unmarked)
167 nM | CC(C)(C)C1CCC(N(Cc2ccc(C(=O)NCCC(=O)O)cc2)C(=O)Nc2ccc3ccccc3c2)CC1 (centres unmarked) [Example 102, 3-{4-[1-(4-tert-Butylcyclohexyl)-3-naphthalen-2-ylureidomethyl]benzoylamino)propionic acid]
108 nM | CC(C)(C)C1CCC(N(Cc2ccc(C(=O)NCCC(=O)O)cc2)NC(=O)c2ccc(OC(F)(F)F)cc2)CC1 (centres unmarked) [drawing 1171]
229 nM | CC(C)(C)C1CCC(N(Cc2ccc(C(=O)NCCC(=O)O)cc2)C(=O)Nc2ccc(Cl)cc2)CC1 (centres unmarked) [Example 230, 3-{4-[1-(4-tert-Butylcyclohexyl)-3-(4-chlorophenyl)ureidomethyl]benzoylamino}propionic acid]
10 nM | CC(C)(C)C1CCC(N(Cc2ccc(C(=O)NCCC(=O)O)cc2)C(=O)Nc2cc(C(F)(F)F)cc(C(F)(F)F)c2)CC1 (centres unmarked)
161 nM | CC(C)(C)C1CCC(N(Cc2ccc(C(=O)NCCC(=O)O)cn2)C(=O)Nc2ccc(OC(F)(F)F)cc2)CC1 (centres unmarked) [Example 612, 3-({6-[1-(4-tert-Butylcyclohexyl)-3-(4-trifluoromethoxyphenyl)ureidomethyl]pyridine-3-carbonyl}amino)propionic acid]
33 nM | CC(C)(C)C1CCC(N(Cc2ccc(OC(F)(F)F)cc2)Cc2ccc(C(=O)NCCC(=O)O)cc2)CC1 (centres unmarked) [Example 385, 3-(4-{[(4-tert-Butylcyclohexyl)-(4-trifluoromethoxybenzyl)amino]methyl}benzoylamino)propionic acid]

same assay, conditions: screened at 1 μM; library compounds; read-out: displacement of the glucagon tracer when screened at 1 μM concentration in the glucagon binding assay II

Compound | inhibition at 1 µM
CC(C)(C)c1ccc(CN(Cc2ccc(C(=O)NCCC(=O)O)s2)C(=O)Nc2ccc3ccccc3c2)cc1 [Example 127, 3-{5-[1-(4-tert-Butylbenzyl)-3-naphthalene-2-ylureidomethyl]thiophene-2-carbonylamino)propionic acid] | > 50%
COc1ccc(CN(Cc2ccc(C(=O)NCCC(=O)O)cc2)Cc2cccc(Oc3cccc(C(F)(F)F)c3)c2)cc1OC [Example 151, 3-(4-{[(3,4-Dimethoxybenzyl)-(3-[3-trifluoromethylphenoxy]benzyl)amino]methyl}benzoylamino)propionic acid] | > 50%
CC(C)(C)C1CCC(N(Cc2ccc(C(=O)Nc3ccc(O)c([N+](=O)[O-])c3)cc2)C(=O)Nc2ccc(Cl)cc2)CC1 (centres unmarked) [Example 162, 4-[1-(4-tert-Butylcyclohexyl)-3-(4-chlorophenyl)ureidomethyl]-N-(4-hydroxy-3-nitrophenyl)benzamide] | > 50%
Cc1ccc(CN(CCc2ccc(Cl)cc2Cl)Cc2ccc(C(=O)NCCC(=O)O)s2)cc1 [Example 147, 3-(5-{[(2,4-Dichlorophenylethyl)-(4-methylbenzyl)amino]methyl}thiophene-2-carbonylamino)propionic acid] | > 50%

Next, values leading:

inhibition at 1 µM | Compound
> 50% | CC1(C)C2CCC(CN(Cc3ccc(OCCCC(=O)O)cc3)C(=O)Nc3ccc(Cl)c(C(F)(F)F)c3)C1C2 (centres unmarked) [Example 215, 4-{4-[3-(4-Chloro-3-trifluoromethylphenyl)-1-(6,6-dimethylbicyclo[3.1.1]hept-2-ylmethyl)ureidomethyl]phenoxy}butyric acid]
> 50% | Cc1cc(C)cc(NC(=O)N(Cc2ccc(OCCCC(=O)O)cc2)C2CCC(C(C)(C)C)CC2)c1 (centres unmarked) [Example 227, 4-{4-[1-(4-tert-Butylcyclohexyl)-3-(3,5-dimethylphenyl)ureidomethyl]phenoxy}butyric acid]
> 50% | CC(C)(C)C1CCC(N(Cc2ccc(OCCCC(=O)O)cc2)C(=O)Nc2ccc(C(=O)O)cc2)CC1 (centres unmarked) [Example 226, 4-{3-(4-tert-Butylcyclohexyl)-3-[4-(3-carboxypropoxy)benzyl]ureido}benzoic acid]
> 50% | CCOc1ccc(NC(=O)N(Cc2ccc(C(=O)NCCC(=O)O)cc2)C2CCC(C(C)(C)C)CC2)cc1 (centres unmarked) [Example 200, 3-{4-[1-(4-tert-Butylcyclohexyl)-3-(4-ethoxyphenyl)ureidomethyl]benzoylamino}propionic acid]
> 50% | O=C(O)CCN1C(=O)c2ccc(CN(C(=O)Nc3ccc(Cl)c(C(F)(F)F)c3)c3ccc4nc(S)sc4c3)cc2C1=O [Example 229, 3-{5-[3-(4-Chloro-3-trifluoromethylphenyl)-1-(2-mercaptobenzothiazol-6-yl)ureidomethyl]1,3-dioxo-1,3-dihydro-isoindol-2-yl}propionic acid]
> 50% | O=C(O)CCNC(=O)c1ccc(CN(C(=O)Nc2ccc(Cl)c(C(F)(F)F)c2)c2ccc3c(c2)OC(F)(F)C(F)(F)O3)cc1 [Example 191, 3-{4-[3-(4-Chloro-3-trifluoromethyl-phenyl)-1-(2,2,3,3-tetrafluoro-2,3-dihydrobenzo[1,4]-dioxin-6-yl)ureidomethyl]benzoylamino}propionic acid]
> 50% | O=C(O)CCNC(=O)c1ccc(CN(C(=O)Nc2ccc(Cl)c(C(F)(F)F)c2)c2ccc(C3CCCCC3)cc2)o1 [Example 212, 3-({5-[3-(4-Chloro-3-trifluoromethylphenyl)-1-(4-cyclohexylphenyl)ureidomethyl]furan-2-carbonyl}amino)propionic acid]
> 50% | O=C(O)CCNC(=O)c1ccc(CN(CCc2cccc(Cl)c2)C(=O)Nc2ccc(Cl)c(C(F)(F)F)c2)cc1 [Example 181, 3-{4-[1-[2-(3-Chlorophenyl)ethyl]-3-(4-chloro-3-trifluoromethylphenyl)ureidomethyl]benzoylamino}propionic acid]
> 50% | O=C(O)CCNC(=O)c1ccc(CN(Cc2ccc(Br)cc2)C(=O)Nc2ccc(Cl)c(C(F)(F)F)c2)cc1 [Example 190, 3-{4-[1-(4-Bromobenzyl)-3-(4-chloro-3-trifluoromethylphenyl)ureidomethyl]benzoylamino}propionic acid]
> 50% | O=C(O)CCCOc1ccc(CN(C(=O)Nc2ccc(Cl)c(C(F)(F)F)c2)C2C[C@H]2c2ccccc2)cc1 (stereo in doubt) [Example 223, 4-{4-[3-(4-Chloro-3-trifluoromethylphenyl)-1-(2-phenylcyclopropyl)ureidomethyl]phenoxy}butyric acid]
> 50% | CC1(C)C2CCC(CN(Cc3ccc(C(=O)NCCC(=O)O)cc3)C(=O)Nc3cccc(SC(F)(F)F)c3)C1C2 (centres unmarked) [Example 204, 3-{4-[1-(6,6-Dimethylbicyclo[3.1.1]hept-2-ylmethyl)-3-(3-trifluoromethylsulfanylphenyl)ureidomethyl]benzoylamino}propionic acid]
